Test results: article PMC11530689, “Anti colorectal cancer activity and in silico studies of novel pyridine nortopsentin analog as cyclin dependent kinase 6 inhibitor” (Scientific Reports, 2024)

What was measured:
Assay in all cases: NCI 60 cell line screen
[1] = system: SF-268; type: cell-based; conditions: SF-268, CNS Cancer; single concentration 10^−5 M
How it was run: (§1)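 Readout is cytotoxic activity at one fixed dose (10^-5 M), measured by NCI within its 60-line tumour panel.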

[2] = system: MDA-MB-435; type: cell-based; conditions: MDA-MB-435, Melanoma; single concentration 10^−5 M
How it was run: as §1

[3] = system: A549/ATCC; type: cell-based; conditions: Non-Small Cell Lung Cancer, single concentration 10^−5 M
How it was run: as §1

[4] = system: HL-60 (TB); type: cell-based; conditions: Leukemia, single concentration 10^−5 M
How it was run: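 Tested externally (NCI, USA) versus 60 tumour cell lines using a single 10^-5 M concentration to gauge cytotoxicity.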

[5] = system: RPMI-8226; type: cell-based; conditions: RPMI-8226, Leukemia; single concentration 10^−5 M
How it was run: as §1

[6] = system: K-562; type: cell-based; conditions: K-562, Leukemia; single concentration 10^−5 M
How it was run: as §1

[7] = system: SF-539; type: cell-based; conditions: SF-539, CNS Cancer; single concentration 10^−5 M
How it was run: as §1

[8] = system: OVCAR-8; type: cell-based; conditions: OVCAR-8, Ovarian Cancer; single concentration 10^−5 M
How it was run: as §1

[9] = system: U251; type: cell-based; conditions: U251, CNS Cancer; single concentration 10^−5 M
How it was run: as §1

[10] = system: MOLT-4; type: cell-based; conditions: MOLT-4, Leukemia; single concentration 10^−5 M
How it was run: as §1

[11] = system: HT29; type: cell-based; conditions: HT29, Colon Cancer; single concentration 10^−5 M
How it was run: as §1

[12] = system: MDA-MB-468; type: cell-based; conditions: MDA-MB-468, Breast Cancer; single concentration 10^−5 M
How it was run: as §1

[13] = system: SF-295; type: cell-based; conditions: SF-295, CNS Cancer; single concentration 10^−5 M
How it was run: as §1

[14] = system: MDA-MB-231/ATCC; type: cell-based; conditions: Breast Cancer, single concentration 10^−5 M
How it was run: as §1

[15] = system: 786-0; type: cell-based; conditions: 786-0, Renal Cancer; single concentration 10^−5 M
How it was run: as §1

[16] = system: RXF 393; type: cell-based; conditions: RXF 393, Renal Cancer; single concentration 10^−5 M
How it was run: as §1

[17] = system: SK-MEL-5; type: cell-based; conditions: SK-MEL-5, Melanoma; single concentration 10^−5 M
How it was run: as §1

[18] = system: HOP-62; type: cell-based; conditions: HOP-62, Non-Small Cell Lung Cancer; single concentration 10^−5 M
How it was run: as §1

[19] = system: NCI-H322M; type: cell-based; conditions: Non-Small Cell Lung Cancer, single concentration 10^−5 M
How it was run: as §1

[20] = system: SK-MEL-2; type: cell-based; conditions: SK-MEL-2, Melanoma; single concentration 10^−5 M
How it was run: as §1

[21] = system: SK-OV-3; type: cell-based; conditions: SK-OV-3, Ovarian Cancer; single concentration 10^−5 M
How it was run: as §1

[22] = system: HCT-116; type: cell-based, human; conditions: HCT-116, Colon Cancer; single concentration 10^−5 M
Protocol: The cytotoxic activity of nortopsintin analogs (4a-4j) was determined by the national cancer institute (NCI, Bethesda, Maryland, USA) against 60 different cancer cell lines at a single concentration of (10^-5 M). For the determination of IC50 value, we used MTT assay kit (Sigma) according to the manufacturer's protocol. HCT-116 cells were seeded into a 96-well plate at a concentration of 20,000 cells/well. After 24 h, the media was aspirated and replaced with serum-free media containing serial dilutions of the 4i compound. […] The percentage of cytotoxicity was calculated using the following equation: % Cytotoxicity = [1 - ([…])] × 100.

## COc1ccc(-c2cc(-c3c[nH]c4ccccc34)nc(-c3c[nH]c4ccccc34)c2C#N)cc1 [4e]
[1]
  Growth %: 105.10%
[2]
  Growth %: 104.98%
[3]
  Growth %: 99.97%
[4]
  Growth %: 106.85%
[5]
  Growth %: 104.41%
[6]
  Growth %: 96.99%
[7]
  Growth %: 93.61%
[8]
  Growth %: 98.49%
[9]
  Growth %: 102.14%
[10]
  Growth %: 94.10%
[11]
  Growth %: 105.49%
[12]
  Growth %: 102.09%
[13]
  Growth %: 95.83%
[14]
  Growth %: 102.65%
[15]
  Growth %: 102.90%
[16]
  Growth %: 94.44%
[17]
  Growth %: 97.12%
[18]
  Growth %: 90.00%
[19]
  Growth %: 108.08%
[20]
  Growth %: 100.09%
[21]
  Growth %: 94.59%
[22]
  Growth %: 106.07%

## N#Cc1c(-c2ccc(O)cc2)cc(-c2c[nH]c3ccccc23)nc1-c1c[nH]c2ccccc12 [4j]
[1]
  Growth %: 105.02%
[2]
  Growth %: 90.35%
[3]
  Growth %: 105.12%
[4]
  Growth %: 107.76%
[5]
  Growth %: 101.54%
[6]
  Growth %: 67.98%
[7]
  Growth %: 66.62%
[8]
  Growth %: 99.60%
[9]
  Growth %: 96.90%
[10]
  Growth %: 87.60%
[11]
  Growth %: 111.48%
[12]
  Growth %: 101.94%
[13]
  Growth %: 87.00%
[14]
  Growth %: 92.33%
[15]
  Growth %: 101.37%
[16]
  Growth %: 83.24%
[17]
  Growth %: 84.85%
[18]
  Growth %: 94.38%
[19]
  Growth %: 101.04%
[20]
  Growth %: 100.11%
[21]
  Growth %: 96.54%
[22]
  Growth %: 105.38%

## N#Cc1c(-c2ccc(Cl)cc2)cc(-c2c[nH]c3ccccc23)nc1-c1c[nH]c2ccccc12 [4c]
[1]
  Growth %: 103.64%
[2]
  Growth %: 106.56%
[3]
  Growth %: 100.29%
[4]
  Growth %: 102.90%
[5]
  Growth %: 102.27%
[6]
  Growth %: 97.57%
[7]
  Growth %: 98.85%
[8]
  Growth %: 101.97%
[9]
  Growth %: 99.27%
[10]
  Growth %: 99.33%
[11]
  Growth %: 107.41%
[12]
  Growth %: 102.95%
[13]
  Growth %: 99.60%
[14]
  Growth %: 97.80%
[15]
  Growth %: 102.38%
[16]
  Growth %: 114.27%
[17]
  Growth %: 99.39%
[18]
  Growth %: 93.62%
[19]
  Growth %: 103.02%
[20]
  Growth %: 103.64%
[21]
  Growth %: 91.24%
[22]
  Growth %: 106.26%

## N#Cc1c(-c2ccc(Br)cc2)cc(-c2c[nH]c3ccccc23)nc1-c1c[nH]c2ccccc12 [4b]
[1]
  Growth %: 100.28%
[2]
  Growth %: 108.30%
[3]
  Growth %: 98.58%
[4]
  Growth %: 102.74%
[5]
  Growth %: 102.03%
[6]
  Growth %: 96.82%
[7]
  Growth %: 97.32%
[8]
  Growth %: 96.50%
[9]
  Growth %: 94.64%
[10]
  Growth %: 99.47%
[11]
  Growth %: 107.82%
[12]
  Growth %: 104.30%
[13]
  Growth %: 99.37%
[14]
  Growth %: 101.07%
[15]
  Growth %: 101.55%
[16]
  Growth %: 109.74%
[17]
  Growth %: 97.46%
[18]
  Growth %: 98.17%
[19]
  Growth %: 104.62%
[20]
  Growth %: 95.21%
[21]
  Growth %: 100.81%
[22]
  Growth %: 104.37%

## COc1cc(-c2cc(-c3c[nH]c4ccccc34)nc(-c3c[nH]c4ccccc34)c2C#N)cc(OC)c1OC [4g]
[1]
  Growth %: 97.03%
[2]
  Growth %: 100.31%
[3]
  Growth %: 99.60%
[4]
  Growth %: 101.32%
[5]
  Growth %: 97.18%
[6]
  Growth %: 90.08%
[7]
  Growth %: 93.66%
[8]
  Growth %: 98.26%
[9]
  Growth %: 100.17%
[10]
  Growth %: 100.72%
[11]
  Growth %: 105.35%
[12]
  Growth %: 93.79%
[13]
  Growth %: 95.05%
[14]
  Growth %: 82.84%
[15]
  Growth %: 102.99%
[16]
  Growth %: 120.31%
[17]
  Growth %: 98.25%
[18]
  Growth %: 87.93%
[19]
  Growth %: 93.11%
[20]
  Growth %: 92.02%
[21]
  Growth %: 97.19%
[22]
  Growth %: 104.41%

## N#Cc1c(-c2ccccc2)cc(-c2c[nH]c3ccccc23)nc1-c1c[nH]c2ccccc12 [4a]
[1]
  Growth %: 96.15%
[2]
  Growth %: 102.63%
[3]
  Growth %: 98.73%
[4]
  Growth %: 103.72%
[5]
  Growth %: 100.70%
[6]
  Growth %: 100.60%
[7]
  Growth %: 98.60%
[8]
  Growth %: 98.73%
[9]
  Growth %: 94.26%
[10]
  Growth %: 102.45%
[11]
  Growth %: 102.69%
[12]
  Growth %: 93.05%
[13]
  Growth %: 96.36%
[14]
  Growth %: 92.64%
[15]
  Growth %: 102.19%
[16]
  Growth %: 94.99%
[17]
  Growth %: 99.18%
[18]
  Growth %: 92.66%
[19]
  Growth %: 105.41%
[20]
  Growth %: 97.65%
[21]
  Growth %: 93.31%
[22]
  Growth %: 103.11%

## N#Cc1c(-c2ccc([N+](=O)[O-])cc2)cc(-c2c[nH]c3ccccc23)nc1-c1c[nH]c2ccccc12 [4h]
[1]
  Growth %: 93.92%
[2]
  Growth %: 104.27%
[3]
  Growth %: 96.38%
[4]
  Growth %: 97.00%
[5]
  Growth %: 95.92%
[6]
  Growth %: 94.26%
[7]
  Growth %: 97.59%
[8]
  Growth %: 98.23%
[9]
  Growth %: 99.87%
[10]
  Growth %: 100.27%
[11]
  Growth %: 111.20%
[12]
  Growth %: 92.34%
[13]
  Growth %: 100.99%
[14]
  Growth %: 96.84%
[15]
  Growth %: 106.06%
[16]
  Growth %: 111.16%
[17]
  Growth %: 97.67%
[18]
  Growth %: 99.88%
[19]
  Growth %: 95.29%
[20]
  Growth %: 96.75%
[21]
  Growth %: 90.72%
[22]
  Growth %: 100.64%

## N#Cc1c(-c2ccc(F)cc2)cc(-c2c[nH]c3ccccc23)nc1-c1c[nH]c2ccccc12 [4d]
[1]
  Growth %: 101.12%
[2]
  Growth %: 107.27%
[3]
  Growth %: 101.42%
[4]
  Growth %: 98.89%
[5]
  Growth %: 100.93%
[6]
  Growth %: 104.54%
[7]
  Growth %: 100.06%
[8]
  Growth %: 100.20%
[9]
  Growth %: 94.85%
[10]
  Growth %: 103.02%
[11]
  Growth %: 110.19%
[12]
  Growth %: 99.29%
[13]
  Growth %: 102.68%
[14]
  Growth %: 102.47%
[15]
  Growth %: 99.50%
[16]
  Growth %: 111.59%
[17]
  Growth %: 100.33%
[18]
  Growth %: 100.69%
[19]
  Growth %: 106.25%
[20]
  Growth %: 96.13%
[21]
  Growth %: 96.90%
[22]
  Growth %: 104.67%

## COc1cc(OC)cc(-c2cc(-c3c[nH]c4ccccc34)nc(-c3c[nH]c4ccccc34)c2C#N)c1 [4f]
[1]
  Growth %: 99.97%
[2]
  Growth %: 99.41%
[3]
  Growth %: 98.51%
[4]
  Growth %: 101.74%
[5]
  Growth %: 98.96%
[6]
  Growth %: 93.22%
[7]
  Growth %: 94.25%
[8]
  Growth %: 102.00%
[9]
  Growth %: 99.96%
[10]
  Growth %: 98.62%
[11]
  Growth %: 108.12%
[12]
  Growth %: 92.23%
[13]
  Growth %: 101.07%
[14]
  Growth %: 100.79%
[15]
  Growth %: 104.74%
[16]
  Growth %: 107.63%
[17]
  Growth %: 98.48%
[18]
  Growth %: 96.31%
[19]
  Growth %: 104.89%
[20]
  Growth %: 88.37%
[21]
  Growth %: 99.89%
[22]
  Growth %: 100.81%
